Like-named read-outs stand apart in the source and are kept apart here. Where a SMILES comes first, the peptide text is derived from it. [ ]: non-standard residue; d: D form. The star is where a group is joined. Isovaleryl = CC(C)CC(=O)*; Isobutyryl = CC(C)C(=O)*; Deg = CCC(N)(CC)C(=O)O; Pentanoyl = CCCCC(=O)*; Aib = CC(C)(N)C(=O)O; NHBn = c1ccc(CN*)cc1; NHPh = c1ccc(N*)cc1; NHiPr = CC(C)N*
Molecular target: WDR5 (Homo sapiens (Human), UniProt P61964)
Test: FP based competitive binding assay to WDR5
Experimental: Another aspect of the invention is development of a Fluorescent Polarization (FP) based competitive binding assay. […] Next, the millipolarization (mP) values were measured at different time points in order to determine equilibrium duration and stability.
Accordingly, the optimal protein concentrations for the competitive assay was investigated.
All the FP based experiments were performed in MICROFLUOR® 2 Black, “U” Bottom, 96-well Microtiter Plates (ThermoSci.) and FP was measured as mP units in a microplate reader (Tecan Ultra) with excitation at 485 nm and emission at 530 nm. The Kd of the tracers and the IC50 value of the inhibitors were calculated using GraphPad Prism 4 software.
The binding affinities of the synthetic peptides shown in the study were measured using this competitive binding assay. A pre-incubated complex solution of WDR5Δ23 and the tracer in 120 μl assay buffer were added to dilutions of the test compound in 5 μl DMSO, giving final concentrations of WDR5Δ23 and the tracer of 4 nM and 0.6 nM, respectively. […] The plates were incubated with shaking at room temperature. The mP values were measured after five hours of incubation and Ki values were calculated using the equation described previously(31).

[1] = read-out: Binding Affinity to WDR5 (IC50 ± SD), Table 5 peptidomimetics
[2] = 4 nM WDR5Δ23, 0.6 nM 10mer-Thr-FAM tracer, Ki calculated by equation of ref. 31, read-out: Ki ± SD
[3] = 4 nM WDR5Δ23, 0.6 nM 10mer-Thr-FAM tracer, read-out: IC50 ± SD

Compound	IC50 [1]	IC50 [3]	other results
CC(=O)N[C@@H](C)C(=O)N[C@@H](CCCNC(=N)N)C(=O)N[C@@H](C)C(N)=O [Ac-3mer, Ac-ARA-NH2] (Ac-Ala-Arg-Ala-NH2)	–	0.54 ± 0.03 µM	Ki [2]: 0.12 ± 0.01 µM
CC(=O)N[C@@H](C)C(=O)N[C@@H](CCCNC(=N)N)C(N)=O [Ac-2mer, Ac-AR-NH2] (Ac-Ala-Arg-NH2)	–	125 ± 6 µM	Ki [2]: 27 ± 1.4 µM
CC(=O)N[C@@H](C)C(=O)N[C@@H](CCCNC(=N)N)C(=O)N[C@@H](C)C(=O)N[C@@H](CCC(=O)O)C(N)=O [Ac-4mer, Ac-ARAE-NH2] (Ac-ARAE-NH2)	–	0.4 ± 0.05 µM	Ki [2]: 0.08 ± 0.01 µM
Ac-ARAEV-NH2 [Ac-5mer, Ac-ARAEV-NH2]	–	–	IC50 (read-out: IC50 ± SD): 0.75 ± 0.1 µM; Ki (read-out: Ki ± SD): 0.16 ± 0.03 µM
CC(=O)N[C@@H](C)C(=O)N[C@@H](CCCNC(=N)N)C(=O)N[C@@H](C)C(=O)N[C@@H](CCC(=O)O)C(=O)N[C@H](C(=O)N[C@@H](Cc1c[nH]cn1)C(=O)N[C@@H](CC(C)C)C(=O)N[C@@H](CCCNC(=N)N)C(=O)N[C@@H](CCCCN)C(=O)N[C@@H](CO)C(N)=O)C(C)C [Ac-10mer]	–	0.02 ± 0.004 µM	times more potent than the WIN peptide (Ki ratio vs WIN): 50; Ki (read-out: Ki): 0.003 µM
CC(=O)N[C@@H](C)C(=O)N[C@@H](CCCNC(=N)N)C(=O)N[C@H](C(N)=O)[C@@H](C)O [Ac-H3-3mer, Ac-ART-NH2] (Ac-Ala-Arg-Thr-NH2)	–	0.08 ± 0.003 µM	Ki (read-out: Ki): 0.02 µM; fold increase of binding affinity to WDR5 on acetylation of the free amino group (vs corresponding unacetylated H3 peptide): 1500
CC(=O)N[C@H](C(=O)N[C@@H](CCCNC(=N)N)C(=O)NC1(C(N)=O)CCC1)C(C)C [Compound 5B]	< 10 µM	–	–
CC(=O)NC1(C(=O)N[C@@H](CCCNC(=N)N)C(=O)N[C@H](C(N)=O)C(C)C)CCC1 [Compound 4B]	< 1 µM	–	–
CC(C)C[C@H](NC(=O)[C@H](Cc1c[nH]cn1)NC(=O)[C@@H](NC(=O)[C@H](CCC(=O)O)NC(=O)[C@H](C)NC(=O)[C@H](CCCNC(=N)N)NC(=O)[C@H](C)N)C(C)C)C(=O)N[C@@H](CCCNC(=N)N)C(=O)N[C@@H](CCCCN)C(=O)N[C@@H](CO)C(N)=O [Compound H2N-10mer]	–	34 ± 3 µM	Ki [2]: 7.3 ± 0.7 µM
C[C@H](N)C(=O)N[C@@H](CCCNC(=N)N)C(=O)N[C@H](C(=O)N[C@@H](CCCC[N+](C)(C)C)C(=O)N[C@@H](CCC(N)=O)C(=O)N[C@H](C(=O)N[C@@H](C)C(=O)N[C@@H](CCCNC(=N)N)C(=O)N[C@@H](CCCCN)C(=O)N[C@@H](CO)C(N)=O)[C@@H](C)O)[C@@H](C)O [L3-10mer-K4Me3, H2N-ARTK(Me3)QTARKS-NH2, reference compound]	–	73 ± 6 µM	Ki [2]: 15.6 ± 1.2 µM
CC(=O)N[C@@H](C)C(=O)N[C@@H](CCCNC(=N)N)C(=O)N[C@H](C(N)=O)[C@@H](C)O [Compound 3I] (Ac-Ala-Arg-Thr-NH2)	< 1 µM	–	–
C[C@H](N)C(=O)N[C@@H](CCCNC(=N)N)C(=O)N[C@H](C(N)=O)[C@@H](C)O [Compound H3-3mer, H2N-ART-NH2, reference compound] (H-Ala-Arg-Thr-NH2)	–	127 ± 12 µM	Ki [2]: 27.3 ± 2.5 µM

Continued, in another order:

IC50 [1]	IC50 [3]	Compound	other results
< 1 µM	–	CC(=O)N[C@@H](C)C(=O)N[C@@H](CCCNC(=N)N)C(=O)N[C@@H](C)C(=O)Nc1ccccc1 [Compound 7D] (Ac-Ala-Arg-Ala-NHPh)	–
< 1 µM	–	CCC(CC)(NC(C)=O)C(=O)N[C@@H](CCCNC(=N)N)C(=O)NC1(C(N)=O)CCCC1 [Compound 6G]	–
> 1 µM	–	CCC(CC)(NC(=O)c1ccccc1)C(=O)N[C@@H](CCCNC(=N)N)C(=O)NC1(C(N)=O)CCCC1 [Compound 10E]	–
< 3 µM	–	CC[C@H](NC(=O)[C@H](CCCNC(=N)N)NC(=O)C(CC)(CC)NC(=O)C(C)C)c1ccccc1 [Compound 11K]	–
< 1 µM	–	CC(=O)NC(C)(C)C(=O)N[C@@H](CCCNC(=N)N)C(=O)NC1(C(N)=O)CCCC1 [Compound 6B]	–
> 10 µM	–	CCCCC(=O)N[C@@H](C)C(=O)N[C@@H](CCCNC(=N)N)C(=O)N[C@@H](C)C(N)=O [Compound 9D] (Pentanoyl-Ala-Arg-Ala-NH2)	–
< 1 µM	–	CC(=O)N[C@@H](C)C(=O)N[C@@H](CCCNC(=N)N)C(=O)N[C@@H](C)C(=O)NCc1ccccc1 [Compound 7E] (Ac-Ala-Arg-Ala-NHBn)	–
< 10 µM	–	CCC(CC)(NC(=O)c1ccccc1)C(=O)N[C@H](CCCNC(=N)N)C(=O)NC1(C(=O)NC(c2ccccc2)c2ccccc2)CCCC1 [Compound 10J]	–
< 30 µM	–	CCC(CC)(NC(=O)C(C)C)C(=O)N[C@@H](CCCNC(=N)N)C(=O)N[C@@H](C)c1ccccc1 [Compound 11G]	–
> 1 µM	–	C[C@H](NC(=O)[C@H](CCCNC(=N)N)NC(=O)[C@H](C)NC(=O)CC1CCCC1)C(N)=O [Compound 9G]	–
< 30 µM	–	CCC(CC)(NC(=O)C(C)C)C(=O)N[C@@H](CCCNC(=N)N)C(=O)NCc1ccccc1 [Compound 11D] (Isobutyryl-[Deg]-Arg-NHBn)	–
> 10 µM	–	CC(C)CC(=O)N[C@@H](C)C(=O)N[C@@H](CCCNC(=N)N)C(=O)N[C@@H](C)C(N)=O [Compound 9B] (Isovaleryl-Ala-Arg-Ala-NH2)	–
< 1 µM	–	CC(=O)NC(C)(C)C(=O)N[C@@H](CCCNC(=N)N)C(=O)N[C@H](C(N)=O)[C@@H](C)O [Compound 6C] (Ac-[Aib]-Arg-Thr-NH2)	–
< 1 µM	–	CC(=O)N[C@@H](C)C(=O)N[C@@H](CCCNC(=N)N)C(=O)N[C@@H](C)C(=O)NC(C)C [Compound 7A] (Ac-Ala-Arg-Ala-NHiPr)	–

From patent US9233086B2 (THE REGENTS OF THE UNIVERSITY OF MICHIGAN, priority 2010, dated 2016)
